Reference: US20230414764A1, “Template Assembly by Proximity-Enhanced Reactivity via Metabolic Labeling” (The General Hospital Corporation, priority 2020, published 2023)
Where “and” joins values, the source holds several entries; their conditions need not be identical. Equal values may be shown once.

Legend:
[1] = tested on: HeLa cells; assay: Azide metabolic labeling of HeLa cells with AzNAM, reaction with DBCO-FAM, fluorescent plate reader; assay type: cell-based, human; settings: AzNAM 10-125 μM, 20 hours, DBCO-FAM 10 μM, 96-well plate reader
Protocol: Initially, cells were cultured in a suitable culture vessel such that their level of confluency at the time of addition of the azide-modified sugar, AzNAM, was not more than 80%.
In particular, HeLa cells were plated in 6-well plates (2.5×10^4 cells/well) and incubated for 48 hours in DMEM-10% FBS medium in a standard 5% CO2 atmosphere. Medium from each well was removed, and each well was washed with 2 ml of phosphate buffered saline (PBS), and fresh DMEM-FBS (1 ml) added. Subsequently, varying amounts of AzNAM (solubilized in DMSO) were added to the wells in small (10 μl) volumes to produce the desired final concentrations in the range 10-125 μM (see, FIG. 1). After an additional 20 hours incubation, the medium in each well was removed, and the wells were washed with 2 ml of PBS, followed by addition of 1 ml of PBS. Then, a fluorescent azide reactive molecule, DBCO-FAM (Broadpharm), was directly added to each well to produce a final concentration of 10 μM.
Plates with added DBCO-FAM were protected from bright light and incubated for 1 hour at room temperature. Supernatants in each well were removed, and each well was washed twice with 2 ml of PBS. […] After pelleting and washing in PBS, cells were resuspended in 150 μl of PBS and counted. Defined numbers in 50 μl volumes in a 96-well Blackwell plate (Corning) were assayed for fluorescence in a fluorescent plate reader (Tecan).

[2] = tested on: HeLa cells; assay: Flow cytometry of AzNAM-labeled HeLa cells reacted with DBCO-FAM; assay type: cell-based, human; settings: AzNAM 125 μM, 20 hours, versus cells receiving no azide-modified sugar
Protocol: In separate cultures, HeLa cells were added to wells of a 12-well plate at 10,000 cells/well, and cultured for 72 hours under normal conditions. The wells were washed with 1 ml of PBS, and 0.5 ml of DMEM-10% FBS was added. AzNAM was added to a final concentration of 125 μM, with cells receiving no azide-modified sugar as controls. After 20 hours, cells were harvested with CellStripper (250 μl/well), washed with PBS, and subjected to flow analysis.

[3] = tested on: HeLa cells; assay: Surface template / ligation-template (LT) qPCR assay on azide-labeled HeLa cells; assay type: cell-based, human; settings: HeLa cells treated with greater than 6 μM of AzNAM
From the text: For example, a nuclease-resistant template (with a 2′-O-methyl RNA backbone) can be modified with a 5′ or 3′ DBCO group, allowing it to specifically react with azides on the surface of metabolically labeled cells. Following this, the template-bearing cells can be treated with two shorter “ligation template” (LT) oligonucleotides each complementary to contiguous regions of the template, and where one of the LT oligonucleotides bears a 5′-phosphate (LT1). After annealing, the 5′-phosphate of LT1 can be ligated with the 3′-hydroxyl on its partner LT (LT2) adjacent on the same template (see, FIG. 16). For this ligation, a ligase enzyme can be used that is compatible with modified nucleic acid backbones, such as Splint® Ligase (New England Biolabs). Since each LT oligonucleotide is also equipped with an additional priming site, the joined LT (1+2) sequence can be amplified by PCR, and can also easily be amenable to quantitation by qPCR. […]
To apply the surface template/LT assay to azide-labeled HeLa cells, cells were treated with several concentrations of AzNAM in 6-well plates at about 80% confluency. After 20 hours, cells were removed from the plate with CellStripper, washed with […] (SF-RPMI), and counted. […]
LT1 and LT2 oligonucleotides complementary to the surface template were added in equimolar quantities to a final concentration of 0.2 pmol/μl. […]

[4] = tested on: murine ovarian cancer cell line ID8; assay: Metabolic labeling (AzNAM/DPEG-FAM) of ID8 cells, flow cytometric analysis; assay type: cell-based
From the text: For Examples 7-11, metabolic labeling was monitored by treatment of cultured cells with the sugar analog peracetylated N-azidoacetylmannosamine (AzNAM), followed after harvest with treatment with the bifunctional click/fluorescent compound DBCO-PEG3-FAM (DPEG-FAM). Surface azide groups resulting from the metabolic labeling process react with the DBCO group (dibenzocyclooctyne) of DPEG-FAM, and were monitored by flow cytometry.
The murine ovarian cancer cell line ID8 represent an example of a cell type giving a relatively low metabolic labeling response, as assessed by AzNAM/DPEG-FAM as usual, results shown in FIGS. 22A-22D. Subconfluent ID8 cells were treated with or without 100 ng/ml murine interferon-beta (mIFNβ), and then treated with AzNAM and DPEG-FAM in a similar manner as for the Jurkat cells of Examples 7 and 8. […] FIGS. 22A-22D show flow cytometric analysis of murine ID8 cells after treatment with 100 ng/ml murine IFN-beta for 3 days, with addition of 100 μM AzNAM at 22 hr prior to harvest. Cells were treated with DPEG-FAM prior to flow analysis.
The murine-specific STING agonist DMXAA (R&D Systems) was used to test ID8 cells with a similar experimental arrangement as for Example 9. […] FIGS. 24A-24D show flow cytometric analysis of murine ID8 cells after treatment with 20 μM murine STING agonist DMXAA for 3 days, with addition of 100 μM AzNAM at 22 hr prior to harvest. Cells were treated with DPEG-FAM prior to flow analysis.

[5] = tested on: Jurkat cells (human T lymphoma); assay: Metabolic labeling (AzNAM/DPEG-FAM) of Jurkat cells, flow cytometric analysis; assay type: cell-based
Protocol: Surface azide groups resulting from the metabolic labeling process react with the DBCO group (dibenzocyclooctyne) of DPEG-FAM, and were monitored by flow cytometry.
22 hr prior to harvest, cell media were supplemented with […] AzNAM or control solvent only (DMSO). After harvest and washing, cells (10^6 cells/ml) were treated with 2 mM DPEG-FAM, washed, and subjected to flow cytometric analysis. […] FIGS. 20A-20D show flow cytometric analysis of human Jurkat cells after treatment with 100 ng/ml human IFN-beta for three days, with addition of 100 μM AzNAM at 22 hr prior to harvest. Cells were treated with DPEG-FAM prior to flow analysis.
FIGS. 21A-21D show flow cytometric analysis of human Jurkat cells after treatment with 75 ng/ml human IFN-beta for 3 days, with addition of 100 μM AzNAM at 22 hr prior to harvest. Cells were treated with DPEG-FAM prior to flow analysis.
FIGS. 23A-23D show flow cytometric analysis of human Jurkat cells after treatment with 50 μM STING agonist 1 (STAG1) for 3 days, with addition of 100 μM AzNAM at 22 hr prior to harvest. Cells were treated with DPEG-FAM prior to flow analysis.

[6] = tested on: HeLa cells; assay: Detection of cell-surface template on AzNAM-labeled HeLa cells with bi-labeled FAM complementary probe, flow analysis; assay type: cell-based, human; settings: AzNAM-treated HeLa cells with surface template; 800 pmol probe, 30 minutes
From the text: Specific cell surface template (positioned by means of click chemical reactions with metabolically derived surface AzNAM; as described in Example 3) can be detected with alternate methods. One such approach uses probe nucleic acid molecules that are complementary to the template of interest, where both 5′- and 3′-ends of such probes are both modified with a fluorescent group, such as FAM.
For example, HeLa cells with surface template of the same sequence as in Example 3 but with a DNA backbone were treated with a 5′/3′ bi-labeled complementary probe of sequence: […] (SEQ ID NO:72). The same cells were also treated with a control bi-labeled scrambled oligonucleotide of sequence CTT […] (SEQ ID NO:73). For treatments, 10^5 washed AzNAM-labeled HeLa cells in 100 μl of serum-free RPMI 1640 medium were incubated with 800 pmol of complementary or scrambled bi-labeled oligonucleotides for 30 minutes at room temperature. Cells were centrifuged (3 minutes at 2000 rpm) and washed once with 500 μl of serum-free RPMI 1640 medium and once with the same volume of PBS. Cells were finally resuspended in 200 μl of PBS and subjected to standard flow analysis.

Molecule: CC(=O)OC[C@H]1OC(OC(C)=O)[C@@H](NC(=O)CN=[N+]=[N-])[C@@H](OC(C)=O)[C@@H]1OC(C)=O (some centres unmarked) [AzNAM, peracetylated N-azidoacetylmannosamine]
- cell-associated fluorescence [1]: increased as a function of the levels of AzNAM
- flow analysis peak shift [2]: marked and well-demarcated peak shifts
- increase over background in formation of the templated LT product [3]: over an order of magnitude
- geometric mean fluorescence (GM) ([4]; ID8/AzNAM (Ctrl): 100 μM AzNAM at 22 hr prior to harvest, no-treatment control, DPEG-FAM): 37.68 and 19.14

Molecule: Cc1ccc2c(=O)c3cccc(CC(=O)O)c3oc2c1C [DMXAA]
- geometric mean fluorescence (GM) ([4]; ID8/AzNAM+DMXAA: 20 μM DMXAA 3 days, 100 μM AzNAM 22 hr prior to harvest): 33.73
- geometric mean fluorescence (GM) ([4]; ID8/Ctrl+DMXAA: 20 μM DMXAA 3 days, control solvent only): 1.67
- AzNAM/DPEG-FAM response enhancement relative to the untreated value ([4]; ID8, 20 μM DMXAA 3 days): 1.8 fold
- effect on comparably-treated DMSO controls ([4]; ID8, 20 μM DMXAA 3 days): no effect

Molecule: O=C(NCc1ccco1)c1ccc2c(c1)N(Cc1c(F)cccc1Cl)C(=O)CS2 [STAG1]
- impact on control DMSO-treated cells ([5]; Jurkat, 50 μM STAG1 3 days): minimal
- metabolic labeling enhancement relative to the untreated value ([5]; Jurkat, 50 μM STAG1 3 days): 1.2 fold
- geometric mean fluorescence (GM) ([5]; Jurkats/AzNAM+STAG1: 50 μM STAG1 3 days, 100 μM AzNAM 22 hr prior to harvest): 325.69
- geometric mean fluorescence (GM) ([5]; Jurkats/DMSO+STAG1: 50 μM STAG1 3 days, control solvent only): 1.47

Molecule: complementary oligonucleotide: 5′/3′ FAM bi-labeled probe complementary to surface template, SEQ ID NO:72 (DNA TCCAGATGTCTTTGCTTTTCTTCAGGACACA; 5' and 3' FAM labels, chemistry not fully specified)
- fluorescent peak relative to cells incubated with control scrambled oligonucleotide [6]: significantly shifted fluorescent peak

B1: mIFNβ: murine interferon-beta (protein, UniProt P01575 22-182, looked up)
Interferon beta: INYKQLQLQERTNIRKCQELLEQLNGKINLTYRADFKIPMEMTEKMQKSYTAFAIQEMLQNVFLVFRNNFSSTGWNETIVVRLLDELHQQTVFLKTVLEEKQEERLTWEMSSTALHLKSYYWRVQRYLKLMKYNSYAWMVVRAEIFRNFLIIRRLTRNFQN
- geometric mean fluorescence (GM) ([4]; ID8/AzNAM+mIFNβ: 100 ng/ml murine IFN-beta 3 days, 100 μM AzNAM 22 hr prior to harvest): 80.58
- geometric mean fluorescence (GM) ([4]; ID8/DMSO+mIFNβ: 100 ng/ml murine IFN-beta 3 days, control solvent only): 16.49
- labeling change in control DMSO cells ([4]; ID8, 100 ng/ml mIFNβ 3 days): much reduced labeling increase
- labeling enhancement of AzNAM-treated cells relative to the untreated value ([4]; ID8, 100 ng/ml mIFNβ 3 days): 2.1 fold
